Experimental data published in PubChem BioAssay (NCI).
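Compound exposure: 48 hours, 5 concentrations, 96-well plates. Here, GI50 denotes the concentration required for 50% inhibition of growth. TGI: concentration producing complete growth inhibition.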

Key:
Test in all cases: NCI anticancer screen, dose series, 48 h
HL-60(TB) leukemia = tested on: HL-60(TB) leukemia
K-562 leukemia = tested on: K-562 leukemia
OVCAR-3 ovarian = tested on: OVCAR-3 ovarian
SF-268 CNS = tested on: SF-268 CNS
SF-295 CNS = tested on: SF-295 CNS
SK-OV-3 ovarian = tested on: SK-OV-3 ovarian
SN12C renal = tested on: SN12C renal
SW-620 colon = tested on: SW-620 colon
NCI-H23 lung = tested on: NCI-H23 lung
TK-10 renal = tested on: TK-10 renal

Structure (SMILES)	TGI (HL-60(TB) leukemia) [µM]	TGI (K-562 leukemia) [µM]	TGI (OVCAR-3 ovarian) [µM]	TGI (SF-268 CNS) [µM]	TGI (SF-295 CNS) [µM]	TGI (SK-OV-3 ovarian) [µM]	TGI (SN12C renal) [µM]	TGI (SW-620 colon) [µM]	TGI (NCI-H23 lung) [µM]	TGI (TK-10 renal) [µM]	GI50 (HL-60(TB) leukemia) [µM]	GI50 (K-562 leukemia) [µM]	GI50 (NCI-H23 lung) [µM]	GI50 (SF-268 CNS) [µM]	GI50 (SW-620 colon) [µM]	GI50 (SF-295 CNS) [µM]	GI50 (SK-OV-3 ovarian) [µM]	GI50 (SN12C renal) [µM]	GI50 (TK-10 renal) [µM]	GI50 (OVCAR-3 ovarian) [µM]
CC(C)N(C(=O)C12C3C4C1C1C2C3C41C(O)C(C)(C)C)C(C)C (configuration not stated)	> 50	> 50	> 50	> 50	> 50	> 50	> 50	> 50	–	–	–	–	–	–	–	–	–	–	–	–
Clc1ccccc1NN(Cc1ccccn1)c1ccccc1Cl	44	68.7	32.9	52.4	71.4	94.9	33.3	37.7	50.4	–	–	–	–	–	–	–	–	–	–	–
Cc1cc(O)c2c(c1)C(O)(c1ccc3c(c1O)C(=O)c1c(O)cc(C)cc1C3(O)C1OC(CO)C(O)C(O)C1O)c1cccc(O)c1C2=O (configuration not stated)	46.8	18.9	22.6	36	24.9	31.4	–	34	31.2	27.2	–	–	–	–	–	–	–	–	–	–
COc1cc2nncc(Sc3cnnc4ccccc34)c2cc1OC	70.5	> 100	33.3	> 100	91.6	76.6	–	41.3	–	81.3	–	–	–	–	–	–	–	–	–	–
COc1ccc(-n2nnc3c(sc4ccccc43)c2=O)cc1	> 100	> 100	–	> 100	–	–	–	> 100	> 100	–	> 100	> 100	> 100	> 100	> 100	–	–	–	–	–
COc1ccc2nc(-c3ccccc3)cc(Nc3cccc(/C(C)=N\O)c3)c2c1	> 100	> 100	–	9.06	5.13	80.6	35.4	> 100	> 100	9.69	> 100	4.12	22.4	3.34	19.4	2.05	6.65	6.05	2.56	–
C=C1C(=O)O[C@@H]2C[C@@]3(C)CC(=O)C=C(C)[C@@H]3C[C@H]12	4.08	–	19.9	42.5	> 100	> 100	26.2	22.6	29.9	25.7	–	–	–	–	–	–	–	–	–	–
COc1cc(-c2csc(NC(=O)c3cc(C(F)(F)F)cc(C(F)(F)F)c3)n2)cc(OC)c1OC	6.18	> 100	19	> 100	14.7	9.76	> 100	> 100	–	> 100	2.07	2.75	–	3.64	3.44	2.27	2.91	2.78	2.49	2.98
COC(=O)C1=C(OC(=O)c2ccc(Cl)cc2)C(C(=O)OC)[C@@]2(O)[C@@H](C(=O)OC)C(c3ccccc3C(F)(F)F)C[C@@H]1[C@@H]2C(=O)OC (some centres not stated)	–	> 100	47.9	> 100	–	60	6.66	21.1	16.8	78.8	–	3.36	3.47	11	3.83	–	5.99	2.08	33	20.3
O=c1oc2ccccc2c(O)c1C=NC(=S)c1ccncc1	35.5	–	> 100	–	> 100	> 100	> 100	> 100	> 100	> 100	–	–	–	–	–	–	–	–	–	–
O=[N+]([O-])c1ccc(N=Nc2c(O)[nH]c3ccc([N+](=O)[O-])cc23)cc1	–	> 100	42	38	27.5	58.5	–	29.5	44.9	54.7	–	–	–	–	–	–	–	–	–	–
C[n+]1cc2c3c(ccc2c2ccc4cc5c(cc4c21)OCO5)OCO3	2.7	3.06	0.758	1.7	2.53	2.45	–	0.36	2.18	2.65	0.445	0.47	0.72	0.489	0.174	1.22	1.21	–	1.33	0.278
N#CC(C#N)SCc1ccccc1	14.7	–	> 100	> 100	> 100	> 49	> 100	> 100	89.1	> 100	–	–	–	–	–	–	–	–	–	–
COC(=O)C1=CCON(c2ccccc2)C1c1ccccc1 (configuration not stated)	61.7	> 100	> 100	> 100	–	> 100	–	> 100	> 100	> 100	–	–	–	–	–	–	–	–	–	–
O=C1c2ccccc2N2OC3(N4CCCC4)CCCC3C12c1ccccc1 (configuration not stated)	> 100	> 100	–	> 100	> 100	> 100	> 100	> 100	> 100	–	–	–	–	–	–	–	–	–	–	–
COc1ccc(OC)c(-c2cc(-c3ccccc3)nn2-c2ccc(S(=O)(=O)NC(C)=O)cc2)c1	> 100	9.76	9.55	32.2	35.1	–	26.2	9.15	21.5	33.1	28	3.36	8.24	10.1	3.52	16.1	–	13.2	12.8	2.82
O=C(c1ccccc1)c1c(CC(O)c2cccnc2)n(C(=O)c2ccccc2)c2ccccc12 (configuration not stated)	49	75.7	32.9	59.4	35.6	–	–	74.9	36.5	86.3	–	–	–	–	–	–	–	–	–	–
Cc1cc([N+](=O)[O-])c(C)c2c1[nH]c1ccc(/C(CCC3CCCC3)=N\N)cc12	–	55.2	36.9	37.5	38.1	–	29.7	33.5	32.7	27.3	–	–	–	–	–	–	–	–	–	–
COc1ccc([C@H]2CC(=O)N3CCCC3N2)cc1 (some centres not stated)	> 100	> 100	–	> 100	> 100	> 100	> 100	> 100	> 100	> 100	–	–	–	–	–	–	–	–	–	–
